Test results from patent EP1377579B1 (Aventis Pharmaceuticals Inc., priority 2000, dated 2002).
Like-named read-outs stand apart in the source and are kept apart here.

Key:
cdk1/cyclin B = cdk1/cyclin B (Homo sapiens, UniProt P06493); experiment: Cyclin-dependent kinase assay, cdk1/cyclin B; settings: CDK1 IC50, nM, Histone H1, 10 µM ATP
in vivo = settings: male, Hsd:ICR (CD-1), mouse, plasma
Experimental: Male mice are given single intravenous cassette doses of CDK inhibitor compounds.
Doses are adjusted for the weight of the individual dihydrochloride and trihydrochloride salts. The compounds are stored desiccated within a closed cabinet at room temperature before use. Dose levels are prepared on the morning of each study.
A single intravenous cassette dose (18 or 15 mg/kg free base) is administered. For each compound, this is equivalent to a dose of approx. 3 mg/kg free base. […] The dose is administered at a volume of 10 ml/kg (total volume of approximately 0.25 ml/animal).
Male mice (Hsd:ICR (CD-1® SD®), Harlan), each weighing approximately 20 - 30 g at the start of the study. […] Water is available ad libitum throughout the study.
Dose Administration and Sample Collection: • A single cassette dose of 5-6 compounds is administered by bolus injection into the tail vein over a 10 - 15-second period. […] Whole blood (approximately 0.6 ml/sample) is obtained by cardiac puncture and transferred to 3 ml glass tubes containing 45 U sodium heparin.
Sample Processing: Plasma: Whole blood is centrifuged at approximately 3,200 rpm for 10 min at approximately 5°C and the plasma (approx. 0.3 ml/sample) is transferred to chilled plastic vials and stored at approx. -70°C until bioanalysis.
Sample Analysis: Concentrations of each test article in plasma are quantitated by a non-validated method based on LC/MS using the following protocol.
Samples are removed from the freezer, allowed to thaw at room temperature, and vortexed to insure complete homogenization prior to sample manipulation. Samples are then prepared according to the following scheme: • 1. transfer 48 µL of plasma (blank mouse sample) into a 12 x 75 mm test tube. • 2. add 12 µL of working standard to the blank plasma for standard curve preparation. • 3. […] Inject 25 µL on LC/MS.
Data Analysis: Concentrations of Compounds in plasma of individual animals are determined by bioanalytics. […] Statistical analyses are limited to simple expressions of variation (mean and standard deviation). The plasma AUC (area-under-curve) is determined by the linear trapezoidal rule. […] All PK parameters are determined by noncompartmental methods using WinNonlin version 3.0 (Pharsight Corp). Plasma vs. time profiles are prepared by Sigma Plot (SPSS, Inc.).

[1] = Red blood cell binding, human whole blood; type: in vitro ADME; settings: 30 minutes at 37°C, 500 ng/ml
Experimental: Compounds, including one positive control, are assessed for red blood cell (RBC) uptake, using a modified procedure based on the protocol reported in Sun, J.X.S., et al. High-performance liquid chromatographic analysis, plasma protein binding and red blood cell partitioning of phenprobamate. Biopharmaceutics and Drug Disposition, 8 (1987) 341-351.
Briefly, RBC uptake is evaluated by comparison of the levels in spiked plasma (n=3) and plasma isolated from spiked whole blood (n=3). Compounds are incubated with human and mouse whole blood, respectively, for 30 minutes at 37°C using a nominal concentration of 500 ng/ml. Following centrifugation, the plasma is removed and submitted for analysis. Each compound is also spiked into blank plasma at a nominal concentration of 500 ng/ml, and submitted for analysis. Levels in the two plasma samples (Cp' and Cp in the equation below) and the blood hematocrit are used to determine the red blood cell to plasma ratio (Crbc/Cp). (Crbc)/(Cp) = (Cpʹ)/(Cp•H)-((1-H))/(H) [formula] In equation 1, Cp' is the level of drug in the spiked "blank" plasma, Cp is the level of drug in the plasma of spiked whole blood, and H is the hematocrit. The hematocrit values are determined as 0.4 for human whole blood and 0.41 for mouse whole blood. The samples are analyzed with ESI LC/MS, using positive ion detection with an internal standard.
The red blood cell to plasma ratio is determined for each compound using equation 1. Tables 6 and 7 summarize the respective mean Crbc/Cp values and standard deviations for mouse and human whole blood, respectively, in descending order based on the red blood cell to plasma ratio, where"*" denotes Positive Control, and "ND" denotes Not Determined. MDL 108552 is included as a positive control for red blood cell uptake. Table 6. Red Blood Cell to Plasma Ratio for compounds in mouse whole blood

cdk4/cyclin D1 = cdk4/cyclin D1 (Homo sapiens, UniProt P11802); experiment: Cyclin-dependent kinase assay, cdk4/cyclin D1; type: biochemical; settings: cyclin D1/cdk4; GST-pRb substrate, 10 µM ATP
NCI-H460 = experiment: In vitro proliferation assay (MTT), NCI-H460; type: cell-based; settings: Homo sapiens
Summary of the method: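 Viability was read as absorbance at 570 nm after DMSO solubilization of MTT dye, which was given to cultures for 2 to 4 hr at 37 C on day 3 of compound treatment. Cells were seeded overnight beforehand at 1000 to 2500/well. IC50 values came from MTT or SRB data.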

Colo-205 = experiment: In vitro proliferation assay (MTT), Colo-205; type: cell-based; settings: Homo sapiens
Summary of the method: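 After 3 days of compound exposure, MTT was added to Colo-205 cultures for 2–4 h at 37 °C. Formazan was dissolved in DMSO and absorbance read at 570 nm. Cells had been plated at 1000–2500/well and left to recover overnight; IC50 values came from the raw readings.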

cdk2/cyclin E = cdk2/cyclin E (Homo sapiens, UniProt P24941); experiment: Cyclin-dependent kinase assay, cdk2/cyclin E; settings: CDK2 IC50, nM, GST-pRb substrate, 10 µM ATP
[2] = tested on: PC-3 Human Prostate Tumors; experiment: PC-3 human prostate tumor xenograft in nude mice; type: in vivo; design: unit not given here
Experimental: Antitumor efficacy is assessed using two subcutaneous human tumor xenograft models. The studies are performed using conventional assay techniques. Briefly, HL-60 (leukemia, 5 x10^5 cells) and PC-3 (prostate, 5 x 10^6 cells) tumor cells are injected subcuateously into nude mice (Crl-CD1-Br-nu, Charles River Laboratory, Wilmington, MA). Dosing with compounds began when tumors reached 50 to 100 mm^3. The dose route/schedule for the test compounds is ip/qld (5x/wk). The test doses are set based on the maximum tolerated dose (MTD). […] The test doses for the efficacy studies are set at 1/3rd the MTD (low dose) and the MTD (high dose). The results are shown in Tables 4 and 5 (HL-60, leukemia) (PC-3, prostate cancer). The length of the treatment phase is dependent on the tumor growth rate for the two models. This treatment phase is typically about 3 weeks for the HL-60 model and about 5 weeks for the PC-3 model. […] Dosing with flavopiridol is for the same time frame as for the experimental compounds in both xenograft models. Tumor volume (twice weekly) and body weights (once weekly) are monitored throughout the course of the treatment phase of the experiment. Tumor sizes are measured by external caliper measurements of protruding tumor. Volumes are calculated using the following formula: volume =½ (a x b2), where b is the smaller of two perpendicular diameters.

[3] = NCI-H460, MTT assay, value (SD, n) where given, read-out: H-460 Lung (IC50 µM)
[4] = COLO 205, MTT assay, value (SD, n) where given, read-out: Colo-205 Colon (IC50 µM)
[5] = NCI-H460, read-out: H-460 Lung (IC50 µM)
[6] = COLO 205, read-out: Colo-205 Colon (IC50 µM)

Sequence of cdk4/cyclin D1 (P11802 whole entry): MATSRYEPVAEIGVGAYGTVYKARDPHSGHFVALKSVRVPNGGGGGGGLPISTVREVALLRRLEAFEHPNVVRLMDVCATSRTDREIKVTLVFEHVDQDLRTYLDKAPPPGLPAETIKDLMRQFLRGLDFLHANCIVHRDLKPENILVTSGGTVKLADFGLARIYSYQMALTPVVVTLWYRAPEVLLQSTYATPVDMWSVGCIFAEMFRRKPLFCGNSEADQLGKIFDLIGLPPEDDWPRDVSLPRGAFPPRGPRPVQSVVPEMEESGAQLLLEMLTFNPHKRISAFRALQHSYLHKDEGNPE
Sequence of cdk4/cyclin D1 (P24385 whole entry partner): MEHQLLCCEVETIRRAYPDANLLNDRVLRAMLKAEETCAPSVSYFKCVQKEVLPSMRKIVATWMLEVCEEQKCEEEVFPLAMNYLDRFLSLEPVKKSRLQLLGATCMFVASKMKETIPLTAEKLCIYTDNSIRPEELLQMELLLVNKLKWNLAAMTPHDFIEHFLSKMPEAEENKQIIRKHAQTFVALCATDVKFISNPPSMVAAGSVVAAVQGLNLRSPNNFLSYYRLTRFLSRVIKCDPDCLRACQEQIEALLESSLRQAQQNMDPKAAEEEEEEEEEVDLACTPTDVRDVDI
Sequence of cdk1/cyclin B (P06493 whole entry): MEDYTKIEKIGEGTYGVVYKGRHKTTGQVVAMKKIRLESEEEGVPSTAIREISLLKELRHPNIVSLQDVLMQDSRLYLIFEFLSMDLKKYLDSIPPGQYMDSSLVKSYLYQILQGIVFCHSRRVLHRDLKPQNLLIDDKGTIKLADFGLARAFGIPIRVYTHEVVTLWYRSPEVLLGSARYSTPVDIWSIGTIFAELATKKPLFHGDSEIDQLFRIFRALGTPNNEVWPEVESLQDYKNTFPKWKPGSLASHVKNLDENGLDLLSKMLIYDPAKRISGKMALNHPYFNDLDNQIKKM
Sequence of cdk1/cyclin B (P14635 whole entry partner): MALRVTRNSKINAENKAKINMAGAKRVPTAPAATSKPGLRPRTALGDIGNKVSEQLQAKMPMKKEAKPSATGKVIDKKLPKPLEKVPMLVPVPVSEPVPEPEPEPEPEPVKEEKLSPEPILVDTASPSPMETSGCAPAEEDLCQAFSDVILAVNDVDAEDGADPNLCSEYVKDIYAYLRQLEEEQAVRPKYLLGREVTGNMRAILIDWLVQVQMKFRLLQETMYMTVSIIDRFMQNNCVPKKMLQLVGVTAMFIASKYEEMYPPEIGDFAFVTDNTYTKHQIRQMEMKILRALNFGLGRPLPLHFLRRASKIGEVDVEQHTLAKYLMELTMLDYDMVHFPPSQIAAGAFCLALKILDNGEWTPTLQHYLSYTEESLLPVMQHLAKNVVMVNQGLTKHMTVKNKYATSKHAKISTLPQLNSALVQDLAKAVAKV

Compound | IC50 (cdk1/cyclin B) | AUC(0-inf) (in vivo; iv, 3 mg/kg) | Cmax (in vivo; iv, 3 mg/kg) | half-life (in vivo; iv, 3 mg/kg) | concentration at 0.083 h (in vivo; iv, 18 mg/kg) | concentration at 0.25 h (in vivo; iv, 18 mg/kg) | concentration at 0.5 h (in vivo; iv, 18 mg/kg) | concentration at 1 h (in vivo; iv, 18 mg/kg) | concentration at 3 h (in vivo; iv, 18 mg/kg) | concentration at 6 h (in vivo; iv, 18 mg/kg) | concentration at 8 h (in vivo; iv, 18 mg/kg) | Mean Red Blood Cell to Plasma Ratio [1] | IC50 (cdk4/cyclin D1) | IC50 (NCI-H460; [3]) | IC50 (Colo-205; [4]) | IC50 (cdk2/cyclin E) | PC-3 Mean Vol. ± SD ([2]; Table 5, dose 3 mg/kg ip) | PC-3 Mean Vol. ± SD ([2]; Table 4, dose 3 mg/kg ip) | IC50 (NCI-H460; [5]) | IC50 (Colo-205; [6]) | further results
Cl.Cl.N[C@H]1CC[C@H](Nc2nc(NC3CCN(C(=O)c4cccc(C(F)(F)F)c4F)CC3)c3ncn(C4CCCC4)c3n2)CC1 [compound 12, trans-1-{4-[2-(4-Amino-cyclohexylamino)-9-cyclopentyl-9H-purin-6-ylamino]-piperidin-1-yl}-1-(2-fluoro-3-trifluoromethyl-phenyl)-methanone dihydrochloride] | 88 nM | 2550 ng·h/mL | 4110 ng/mL | 2.3 h | 4110 ± 754 ng/mL | 2360 ± 124 ng/mL | 1090 ± 36.1 ng/mL | 465 ± 34.6 ng/mL | 74.7 ± 17.4 ng/mL | 27 ± 2.7 ng/mL | 16.9 ± 1.4 ng/mL | 3.6 | 614 nM | 0.38 µM | 0.21 µM | 5 nM | 1063 ± 693 | – | – | – | PC-3 Mean Vol. ± SD ([2]; Table 5, dose 10 mg/kg ip): 1107 ± 606
Cl.Cl.N#Cc1ccc(S(=O)(=O)N2CCC(Nc3nc(N[C@H]4CC[C@H](N)CC4)nc4c3ncn4C3CCCC3)CC2)cc1 [compound 109, trans-N^2-(4-Amino-cyclohexyl)-9-cyclopentyl-N^6-[1-(4-cyano-benzenesulfonyl)-piperidin-4-yl]-9H-purine-2,6-diamine dihydrochloride] | 18 nM | 1110 ng·h/mL | 1690 ng/mL | 2 h | 1690 ± 224 ng/mL | 915 ± 15.2 ng/mL | 514 ± 45.2 ng/mL | 238 ± 38.7 ng/mL | 30.1 ± 8.5 ng/mL | 9.5 ± 1.8 ng/mL | 5.5 ± 0.9 ng/mL | 5.0 | 12 nM | 0.25 µM | 0.18 µM | 45 nM | – | 1807 ± 1388 | – | – | PC-3 Mean Vol. ± SD ([2]; Table 4, dose 10 mg/kg ip): 979 ± 734
CCOC(=O)c1ccc(NC(=O)N2CCC(Nc3nc(N[C@H]4CC[C@H](N)CC4)nc4c3ncn4C3CCCC3)CC2)cc1.Cl.Cl [compound 154, trans-4-[(1-{4-[2-(4-Amino-cyclohexylamino)-9-cyclopentyl-9H-purin-6-ylamino]-piperidin-1-yl}-methanoyl)-amino]-benzoic acid ethyl ester dihydrochloride] | 11 nM | 1580 ng·h/mL | 4850 ng/mL | 0.8 h | 4850 ± 794 ng/mL | 1130 ± 243 ng/mL | 377 ± 73.2 ng/mL | 126 ± 12.3 ng/mL | 8.4 ± 3.1 ng/mL | 2.3 ± 1.6 ng/mL | – | 4.1 | 285 nM | 0.24 µM | 0.01 µM | 30 nM | – | 1385 ± 873 | – | – | PC-3 Mean Vol. ± SD ([2]; Table 4, dose 10 mg/kg ip): 1707 ± 721
COc1ccc(OC(=O)N2CCC(Nc3nc(N[C@H]4CC[C@H](N)CC4)nc4c3ncn4C3CCCC3)CC2)cc1.Cl.Cl [compound 84, trans-4-[2-(4-Amino-cyclohexylamino)-9-cyclopentyl-9H-purin-6-ylamino]-piperidine-1-carboxylic acid 4-methoxy-phenyl ester dihydrochloride] | 19 nM | 965 ng·h/mL | 1510 ng/mL | 1.5 h | 1510 ± 377 ng/mL | 883 ± 140 ng/mL | 446 ± 79 ng/mL | 202 ± 37.3 ng/mL | 27 ± 2.4 ng/mL | 6.1 ± 0.8 ng/mL | 2.9 ± 0.2 ng/mL | 2.0 | 69 nM | – | – | 9 nM | 1386 ± 752 | – | 0.07 µM | 0.03 µM | PC-3 Mean Vol. ± SD ([2]; Table 5, dose 1 mg/kg ip): 770 ± 567
Cl.Cl.N[C@H]1CC[C@H](Nc2nc(NC3CCN(C(=O)Oc4ccc([N+](=O)[O-])cc4)CC3)c3ncn(C4CCCC4)c3n2)CC1 [compound 89, trans-4-[2-(4-Amino-cyclohexylamino)-9-cyclopentyl-9H-purin-6-ylamino]-piperidine-1-carboxylic acid 4-nitro-phenyl ester dihydrochloride] | 20 nM | 366 ng·h/mL | 642 ng/mL | 1.8 h | – | – | – | – | – | – | – | 4.2 | 65 nM | – | – | 42 nM | – | 866 ± 384 | 0.03 µM | 0.01 µM | concentration at 0.083 h (in vivo; intravenous, 3 mg/kg): 642 ± 49.5 ng/mL; concentration at 0.25 h (in vivo; intravenous, 3 mg/kg): 303 ± 34.3 ng/mL; concentration at 0.5 h (in vivo; intravenous, 3 mg/kg): 142 ± 2.7 ng/mL; concentration at 1 h (in vivo; intravenous, 3 mg/kg): 52.4 ± 4.2 ng/mL; concentration at 3 h (in vivo; intravenous, 3 mg/kg): 17 ± 4.7 ng/mL; concentration at 6 h (in vivo; intravenous, 3 mg/kg): 3.7 ± 1 ng/mL; concentration at 8 h (in vivo; intravenous, 3 mg/kg): 3.8 ± 0.5 ng/mL; PC-3 Mean Vol. ± SD ([2]; Table 4, dose 1 mg/kg ip): 2572 ± 1052
Cl.Cl.N[C@H]1CC[C@H](Nc2nc(NC3CCN(C(=O)Oc4ccc(F)cc4)CC3)c3ncn(C4CCCC4)c3n2)CC1 [compound 87, trans-4-[2-(4-Amino-cyclohexylamino)-9-cyclopentyl-9H-purin-6-ylamino]-piperidine-1-carboxylic acid 4-fluoro-phenyl ester dihydrochloride] | 15 nM | 513 ng·h/mL | 1170 ng/mL | 1.6 h | – | – | – | – | – | – | – | 8.4 | 27 nM | – | – | 42 nM | – | 1396 ± 958 | 0.08 µM | 0.16 µM | concentration at 0.083 h (in vivo; intravenous, 3 mg/kg): 1170 ± 153 ng/mL; concentration at 0.25 h (in vivo; intravenous, 3 mg/kg): 372 ± 35.9 ng/mL; concentration at 0.5 h (in vivo; intravenous, 3 mg/kg): 141 ± 9.5 ng/mL; concentration at 1 h (in vivo; intravenous, 3 mg/kg): 65 ± 14 ng/mL; concentration at 3 h (in vivo; intravenous, 3 mg/kg): 19.2 ± 6 ng/mL; concentration at 6 h (in vivo; intravenous, 3 mg/kg): 4.3 ± 0.7 ng/mL; concentration at 8 h (in vivo; intravenous, 3 mg/kg): 3.2 ± 1.6 ng/mL; PC-3 Mean Vol. ± SD ([2]; Table 4, dose 1 mg/kg ip): 3271 ± 2262
